Test results taken from publication PMC10316084, “Bacteroidota polysaccharide utilization system for branched dextran exopolysaccharides from lactic acid bacteria” (The Journal of Biological Chemistry, 2023).

How the values were obtained:
[1] = target: T1, FjDusD (Flavobacterium johnsoniae, UniProt A5FBI4); assay: isothermal titration calorimetry; assay type: binding; conditions: 10 mM HEPES-NaOH pH 7.0, 25 °C; one-site model (n = 1)
T1 construct: gene Fjoh_4433; signal peptide evaluated by SignalP
T1 sequence (A5FBI4 22-494): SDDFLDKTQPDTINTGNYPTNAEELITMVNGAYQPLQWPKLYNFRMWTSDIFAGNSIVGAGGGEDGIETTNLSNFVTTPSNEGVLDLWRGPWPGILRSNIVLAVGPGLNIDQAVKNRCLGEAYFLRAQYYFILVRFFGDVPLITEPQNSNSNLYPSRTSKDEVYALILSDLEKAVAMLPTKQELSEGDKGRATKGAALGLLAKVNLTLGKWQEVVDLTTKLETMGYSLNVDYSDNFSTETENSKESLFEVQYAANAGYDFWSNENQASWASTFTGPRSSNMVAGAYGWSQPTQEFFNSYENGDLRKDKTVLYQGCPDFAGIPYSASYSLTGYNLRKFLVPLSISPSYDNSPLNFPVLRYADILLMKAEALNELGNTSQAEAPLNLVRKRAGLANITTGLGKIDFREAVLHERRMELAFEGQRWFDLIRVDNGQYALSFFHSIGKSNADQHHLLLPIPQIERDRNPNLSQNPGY
Source text: isothermal titration calorimetry on FjDusD

[2] = target: T2, FjGH66 (Flavobacterium johnsoniae, UniProt A5FBI2); assay: X-ray crystal structure, […] Å; assay type: binding
T2 construct: gene Fjoh_4431; domains 41-126, 127-464, 485-586
T2 sequence (A5FBI2 34-586): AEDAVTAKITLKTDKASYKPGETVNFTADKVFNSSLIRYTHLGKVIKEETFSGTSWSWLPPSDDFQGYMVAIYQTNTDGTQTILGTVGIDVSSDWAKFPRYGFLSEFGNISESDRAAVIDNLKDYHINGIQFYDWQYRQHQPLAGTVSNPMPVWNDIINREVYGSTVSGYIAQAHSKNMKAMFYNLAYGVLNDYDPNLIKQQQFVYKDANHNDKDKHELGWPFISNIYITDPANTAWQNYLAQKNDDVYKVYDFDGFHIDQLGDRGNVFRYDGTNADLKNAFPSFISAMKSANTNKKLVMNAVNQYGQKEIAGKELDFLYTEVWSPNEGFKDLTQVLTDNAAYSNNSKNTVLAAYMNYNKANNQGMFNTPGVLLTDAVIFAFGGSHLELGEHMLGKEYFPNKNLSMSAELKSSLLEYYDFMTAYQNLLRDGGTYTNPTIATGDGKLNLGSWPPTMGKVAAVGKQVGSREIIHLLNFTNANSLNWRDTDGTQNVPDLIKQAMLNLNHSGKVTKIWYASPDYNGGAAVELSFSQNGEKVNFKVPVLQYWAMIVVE

Row | Structure (SMILES) | Kd [1] [µM] | other results
1 | OC[C@H]1O[C@H](OC[C@H]2O[C@H](OC[C@H]3O[C@H](OC[C@H]4O[C@H](OC[C@H]5O[C@H](OC[C@H]6OC(O)[C@H](O)[C@@H](O)[C@@H]6O)[C@H](O)[C@@H](O)[C@@H]5O)[C@H](O)[C@@H](O)[C@@H]4O)[C@H](O)[C@@H](O)[C@@H]3O)[C@H](O)[C@@H](O)[C@@H]2O)[C@H](O)[C@@H](O)[C@@H]1O (stereo partly drawn) [Isomaltohexaose] | 467 ± 156 | 
2 | OC[C@H]1O[C@H](OC[C@H]2O[C@H](OC[C@H]3O[C@H](OC[C@H]4O[C@H](OC[C@H]5OC(O)[C@H](O)[C@@H](O)[C@@H]5O)[C@H](O)[C@@H](O)[C@@H]4O)[C@H](O)[C@@H](O)[C@@H]3O)[C@H](O)[C@@H](O)[C@@H]2O)[C@H](O)[C@@H](O)[C@@H]1O (stereo partly drawn) [Isomaltopentaose] | 226 ± 29 | 
3 | OC[C@H]1O[C@H](OC[C@H]2OC(O)[C@H](O)[C@@H](O)[C@@H]2O)[C@H](O)[C@@H](O)[C@@H]1O (stereo partly drawn) [Isomaltose] |  | X-ray crystal structure, 1.80 Å ([2]; crystal soaked with 10 mM IG2): complexes with glucose, IG2, or IG3 were determined
4 | OC[C@H]1O[C@H](OC[C@H]2O[C@H](OC[C@H]3O[C@H](OC[C@H]4OC(O)[C@H](O)[C@@H](O)[C@@H]4O)[C@H](O)[C@@H](O)[C@@H]3O)[C@H](O)[C@@H](O)[C@@H]2O)[C@H](O)[C@@H](O)[C@@H]1O (stereo partly drawn) [Isomaltotetraose] | 326 ± 14 | 
5 | OC[C@H]1O[C@H](OC[C@H]2O[C@H](OC[C@H]3OC(O)[C@H](O)[C@@H](O)[C@@H]3O)[C@H](O)[C@@H](O)[C@@H]2O)[C@H](O)[C@@H](O)[C@@H]1O (stereo partly drawn) [Isomaltotriose] | 621 ± 23 | 
6 | OC[C@H]1OC(O)[C@H](O)[C@@H](O)[C@@H]1O (stereo partly drawn) [glucose] |  | X-ray crystal structure, 1.80 Å ([2]; crystal soaked with 10 mM glucose): complexes with glucose, IG2, or IG3 were determined
